Source: the kinase profiling compilation of Christmann-Franck et al. (2016)

Tests used:
Experiment in all cases: radiometric filter-binding kinase assay
STK3 (human) = STK3 (human) (UniProt Q13188)
[1] = system: RPS6KB1 (human), P23443 [T412E]
[2] = system: SGK1 (human), O00141 [S422D]
ROCK2 (rat) = conditions: accession and sequence are those of the human protein
DYRK3 (human) = DYRK3 (human) (UniProt O43781)
BRSK2 (human) = BRSK2 (human) (UniProt Q8IWQ3)
PIM2 (human) = PIM2 (human) (UniProt Q9P1W9)
Sequence of PIM2 (human) (Q9P1W9 whole entry, looked up): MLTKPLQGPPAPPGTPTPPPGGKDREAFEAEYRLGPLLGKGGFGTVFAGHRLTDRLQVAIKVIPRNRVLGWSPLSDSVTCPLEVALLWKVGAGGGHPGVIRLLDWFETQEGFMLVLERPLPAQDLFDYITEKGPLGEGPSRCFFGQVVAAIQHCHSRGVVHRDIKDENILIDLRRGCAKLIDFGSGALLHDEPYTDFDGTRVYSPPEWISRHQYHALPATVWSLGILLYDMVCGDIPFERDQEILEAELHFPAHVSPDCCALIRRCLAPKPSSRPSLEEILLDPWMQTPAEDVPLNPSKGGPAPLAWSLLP

CSNK2A1 (human) = CSNK2A1 (human) (UniProt P68400)
Sequence of CSNK2A1 (human) (P68400 whole entry, looked up): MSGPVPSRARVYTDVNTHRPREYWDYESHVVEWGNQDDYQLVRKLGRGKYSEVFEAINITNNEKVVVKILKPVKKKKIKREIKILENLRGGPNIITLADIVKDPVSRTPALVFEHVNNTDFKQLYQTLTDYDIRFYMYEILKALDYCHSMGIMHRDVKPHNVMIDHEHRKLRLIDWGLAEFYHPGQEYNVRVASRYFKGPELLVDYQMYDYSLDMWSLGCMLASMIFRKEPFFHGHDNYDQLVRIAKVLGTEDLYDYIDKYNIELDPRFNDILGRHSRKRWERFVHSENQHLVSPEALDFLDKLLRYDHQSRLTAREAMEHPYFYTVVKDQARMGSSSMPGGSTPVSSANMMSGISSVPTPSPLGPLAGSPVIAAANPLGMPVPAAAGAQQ

TBK1 (human) = TBK1 (human) (UniProt Q9UHD2)
MAPK3 (human) = MAPK3 (human) (UniProt P27361)
Sequence of MAPK3 (human) (P27361 whole entry, looked up): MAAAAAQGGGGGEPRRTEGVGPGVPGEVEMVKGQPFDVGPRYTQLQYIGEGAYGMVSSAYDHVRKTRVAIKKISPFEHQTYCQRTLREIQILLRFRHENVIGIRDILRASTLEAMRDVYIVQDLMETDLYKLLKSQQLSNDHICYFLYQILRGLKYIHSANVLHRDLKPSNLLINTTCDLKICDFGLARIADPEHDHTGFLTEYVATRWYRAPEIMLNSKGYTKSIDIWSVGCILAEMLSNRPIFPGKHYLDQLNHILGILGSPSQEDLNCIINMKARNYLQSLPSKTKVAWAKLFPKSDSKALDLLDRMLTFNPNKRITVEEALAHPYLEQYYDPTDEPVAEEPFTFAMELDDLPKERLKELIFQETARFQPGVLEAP

PIM3 (human) = PIM3 (human) (UniProt Q86V86)
MAPK12 (human) = MAPK12 (human) (UniProt P53778)
Sequence of MAPK12 (human) (P53778 whole entry, looked up): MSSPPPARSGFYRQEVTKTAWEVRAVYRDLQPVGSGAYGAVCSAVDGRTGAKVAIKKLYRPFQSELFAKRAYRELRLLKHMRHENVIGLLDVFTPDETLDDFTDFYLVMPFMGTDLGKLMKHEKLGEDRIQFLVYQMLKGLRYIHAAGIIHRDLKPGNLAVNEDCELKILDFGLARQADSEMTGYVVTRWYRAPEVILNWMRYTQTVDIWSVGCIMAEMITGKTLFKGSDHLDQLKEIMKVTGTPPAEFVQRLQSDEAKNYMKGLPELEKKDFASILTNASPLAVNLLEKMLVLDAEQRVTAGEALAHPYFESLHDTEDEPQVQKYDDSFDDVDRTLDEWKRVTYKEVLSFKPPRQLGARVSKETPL

DYRK1A (human) = DYRK1A (human) (UniProt Q13627)
[3] = system: AKT1 (human), P31749 [S473D]
RPS6KA1 KD1 KD2 (human) = RPS6KA1 KD1 KD2 (human) (UniProt Q15418)
MAPK14 (human) = MAPK14 (human) (UniProt Q16539)
Sequence of MAPK14 (human) (Q16539 whole entry, looked up): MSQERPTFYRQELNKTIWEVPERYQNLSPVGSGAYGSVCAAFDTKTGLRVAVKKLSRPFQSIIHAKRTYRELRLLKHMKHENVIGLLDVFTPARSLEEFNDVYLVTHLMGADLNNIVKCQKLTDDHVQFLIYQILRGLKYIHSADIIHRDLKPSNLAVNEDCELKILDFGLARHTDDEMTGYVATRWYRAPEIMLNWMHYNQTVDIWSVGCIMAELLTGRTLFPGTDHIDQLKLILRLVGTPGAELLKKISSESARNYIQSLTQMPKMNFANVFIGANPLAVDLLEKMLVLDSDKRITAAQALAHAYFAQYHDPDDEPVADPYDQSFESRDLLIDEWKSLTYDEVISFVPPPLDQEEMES

PAK4 (human) = PAK4 (human) (UniProt O96013)
MAPK8 (human) = MAPK8 (human) (UniProt P45983)
Sequence of MAPK8 (human) (P45983 whole entry, looked up): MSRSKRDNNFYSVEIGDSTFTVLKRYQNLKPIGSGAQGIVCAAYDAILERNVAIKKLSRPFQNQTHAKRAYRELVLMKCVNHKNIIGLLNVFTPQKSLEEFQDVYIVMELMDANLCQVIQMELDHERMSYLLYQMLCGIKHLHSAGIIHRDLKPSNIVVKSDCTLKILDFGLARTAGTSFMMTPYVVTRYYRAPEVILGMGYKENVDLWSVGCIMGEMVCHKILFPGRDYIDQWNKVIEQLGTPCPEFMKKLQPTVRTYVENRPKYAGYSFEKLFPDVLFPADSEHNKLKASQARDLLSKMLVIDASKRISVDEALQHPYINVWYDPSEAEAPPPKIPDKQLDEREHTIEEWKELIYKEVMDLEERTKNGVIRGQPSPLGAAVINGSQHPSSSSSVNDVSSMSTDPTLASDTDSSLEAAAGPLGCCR

RPS6KA3 KD1 KD2 (human) = RPS6KA3 KD1 KD2 (human) (UniProt P51812)
Sequence of RPS6KA3 KD1 KD2 (human) (P51812 whole entry, looked up): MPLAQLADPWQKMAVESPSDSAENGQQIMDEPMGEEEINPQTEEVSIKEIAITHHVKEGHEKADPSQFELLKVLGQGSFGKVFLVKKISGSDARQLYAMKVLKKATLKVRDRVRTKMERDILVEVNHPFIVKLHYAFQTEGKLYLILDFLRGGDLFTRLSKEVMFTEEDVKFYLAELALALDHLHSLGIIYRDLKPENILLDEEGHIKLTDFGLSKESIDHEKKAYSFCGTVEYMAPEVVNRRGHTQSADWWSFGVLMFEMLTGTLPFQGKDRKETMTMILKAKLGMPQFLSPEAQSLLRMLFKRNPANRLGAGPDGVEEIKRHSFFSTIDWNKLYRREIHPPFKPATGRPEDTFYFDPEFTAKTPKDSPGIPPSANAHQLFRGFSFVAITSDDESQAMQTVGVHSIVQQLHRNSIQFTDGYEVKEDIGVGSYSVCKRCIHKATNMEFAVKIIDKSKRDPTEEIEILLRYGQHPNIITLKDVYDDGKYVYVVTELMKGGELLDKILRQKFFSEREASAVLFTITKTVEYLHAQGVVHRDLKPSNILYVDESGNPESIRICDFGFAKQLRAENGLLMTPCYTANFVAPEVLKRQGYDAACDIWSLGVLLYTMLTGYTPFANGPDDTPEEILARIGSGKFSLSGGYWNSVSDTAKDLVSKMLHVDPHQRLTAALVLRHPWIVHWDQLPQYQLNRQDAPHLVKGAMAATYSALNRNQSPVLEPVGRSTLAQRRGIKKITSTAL

MKNK2 (human) = MKNK2 (human) (UniProt Q9HBH9)
Sequence of MKNK2 (human) (Q9HBH9 whole entry, looked up): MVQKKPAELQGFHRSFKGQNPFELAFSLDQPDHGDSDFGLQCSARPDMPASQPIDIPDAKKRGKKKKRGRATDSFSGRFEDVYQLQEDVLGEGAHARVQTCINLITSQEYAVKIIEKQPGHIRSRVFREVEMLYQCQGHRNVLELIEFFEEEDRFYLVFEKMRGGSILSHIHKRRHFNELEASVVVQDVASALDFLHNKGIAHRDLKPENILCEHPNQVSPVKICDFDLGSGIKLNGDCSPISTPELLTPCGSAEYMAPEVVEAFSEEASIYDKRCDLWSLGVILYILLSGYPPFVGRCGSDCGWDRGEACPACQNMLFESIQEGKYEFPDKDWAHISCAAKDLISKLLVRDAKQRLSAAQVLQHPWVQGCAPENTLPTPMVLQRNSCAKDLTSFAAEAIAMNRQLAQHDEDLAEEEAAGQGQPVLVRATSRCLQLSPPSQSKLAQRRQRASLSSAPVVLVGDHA

MAPKAPK5 (human) = MAPKAPK5 (human) (UniProt Q8IW41)
MAPK11 (human) = MAPK11 (human) (UniProt Q15759)
PLK1 (human) = PLK1 (human) (UniProt P53350)
IKBKB (human) = IKBKB (human) (UniProt O14920)
IRAK4 (human) = IRAK4 (human) (UniProt Q9NWZ3)
IKBKE (human) = IKBKE (human) (UniProt Q14164)
PIM1 (human) = PIM1 (human) (UniProt P11309)
EPHB3 (human) = EPHB3 (human) (UniProt P54753)
MAPKAPK3 (human) = MAPKAPK3 (human) (UniProt Q16644)
MAP3K11 (human) = MAP3K11 (human) (UniProt Q16584)

Sequence of DYRK3 (human) (O43781 whole entry, looked up): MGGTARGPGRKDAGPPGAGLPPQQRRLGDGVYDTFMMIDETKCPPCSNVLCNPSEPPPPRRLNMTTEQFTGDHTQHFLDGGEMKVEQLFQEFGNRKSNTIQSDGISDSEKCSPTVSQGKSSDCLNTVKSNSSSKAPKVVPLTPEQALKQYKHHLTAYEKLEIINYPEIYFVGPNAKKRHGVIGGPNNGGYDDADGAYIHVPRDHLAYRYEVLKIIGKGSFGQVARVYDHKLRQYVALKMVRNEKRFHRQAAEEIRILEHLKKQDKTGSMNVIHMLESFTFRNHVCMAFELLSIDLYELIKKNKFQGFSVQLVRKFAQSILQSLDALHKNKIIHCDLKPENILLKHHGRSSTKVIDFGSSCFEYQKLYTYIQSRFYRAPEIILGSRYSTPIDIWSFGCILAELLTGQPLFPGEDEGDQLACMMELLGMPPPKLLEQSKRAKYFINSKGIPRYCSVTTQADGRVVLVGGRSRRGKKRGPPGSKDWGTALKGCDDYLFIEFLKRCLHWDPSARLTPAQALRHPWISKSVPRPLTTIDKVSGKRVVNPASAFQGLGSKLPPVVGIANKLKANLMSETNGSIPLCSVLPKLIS
Sequence of SGK1 (human), O00141 [S422D] (O00141 whole entry S422D, looked up): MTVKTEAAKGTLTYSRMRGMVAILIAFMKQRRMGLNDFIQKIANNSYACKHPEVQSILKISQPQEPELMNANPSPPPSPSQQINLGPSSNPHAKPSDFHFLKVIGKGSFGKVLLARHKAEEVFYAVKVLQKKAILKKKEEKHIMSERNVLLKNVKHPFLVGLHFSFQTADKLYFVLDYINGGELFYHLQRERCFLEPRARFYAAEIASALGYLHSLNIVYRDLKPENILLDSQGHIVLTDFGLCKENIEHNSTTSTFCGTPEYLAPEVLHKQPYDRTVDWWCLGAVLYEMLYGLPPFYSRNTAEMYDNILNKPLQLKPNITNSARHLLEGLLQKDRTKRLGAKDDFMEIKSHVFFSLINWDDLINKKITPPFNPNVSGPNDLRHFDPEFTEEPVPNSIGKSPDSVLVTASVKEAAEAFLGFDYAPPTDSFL
Sequence of STK3 (human) (Q13188 whole entry, looked up): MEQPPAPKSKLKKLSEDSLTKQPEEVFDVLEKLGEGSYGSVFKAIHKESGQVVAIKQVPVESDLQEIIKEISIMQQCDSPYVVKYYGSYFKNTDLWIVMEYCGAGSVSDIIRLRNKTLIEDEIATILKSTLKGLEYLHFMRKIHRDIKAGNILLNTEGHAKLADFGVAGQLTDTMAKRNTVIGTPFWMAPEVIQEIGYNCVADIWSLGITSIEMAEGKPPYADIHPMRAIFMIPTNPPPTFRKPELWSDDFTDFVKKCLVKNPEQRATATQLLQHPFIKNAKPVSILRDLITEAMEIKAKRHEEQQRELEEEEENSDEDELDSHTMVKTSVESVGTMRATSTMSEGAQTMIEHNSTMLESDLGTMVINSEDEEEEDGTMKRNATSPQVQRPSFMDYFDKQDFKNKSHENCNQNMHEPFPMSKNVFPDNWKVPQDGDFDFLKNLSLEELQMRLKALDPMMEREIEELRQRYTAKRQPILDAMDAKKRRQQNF

Structure (SMILES): CN1C(=O)[C@@H](Cc2c[nH]c3ccccc23)NC1=S
- residual activity (STK3 (human); compound 1.0 µM): 94%
- residual activity (STK3 (human); compound 10.0 µM): 104%
- residual activity ([1]; compound 1.0 µM): 83%
- residual activity ([1]; compound 10.0 µM): 99%
- residual activity ([2]; compound 1.0 µM): 99%
- residual activity ([2]; compound 10.0 µM): 98%
- residual activity (ROCK2 (rat); compound 1.0 µM): 96%
- residual activity (ROCK2 (rat); compound 10.0 µM): 97%
- residual activity (DYRK3 (human); compound 1.0 µM): 90%
- residual activity (DYRK3 (human); compound 10.0 µM): 82%
- residual activity (BRSK2 (human); compound 1.0 µM): 91%
- residual activity (BRSK2 (human); compound 10.0 µM): 85%
- residual activity (PIM2 (human); compound 1.0 µM): 95%
- residual activity (PIM2 (human); compound 10.0 µM): 105%
- residual activity (CSNK2A1 (human); compound 1.0 µM): 95%
- residual activity (CSNK2A1 (human); compound 10.0 µM): 87%
- residual activity (TBK1 (human); compound 1.0 µM): 87%
- residual activity (TBK1 (human); compound 10.0 µM): 96%
- residual activity (MAPK3 (human); compound 10.0 µM): 93%
- residual activity (PIM3 (human); compound 1.0 µM): 88%
- residual activity (PIM3 (human); compound 10.0 µM): 85%
- residual activity (MAPK12 (human); compound 1.0 µM): 111%
- residual activity (MAPK12 (human); compound 10.0 µM): 101%
- residual activity (DYRK1A (human); compound 1.0 µM): 81%
- residual activity (DYRK1A (human); compound 10.0 µM): 94%
- residual activity ([3]; compound 1.0 µM): 96%
- residual activity ([3]; compound 10.0 µM): 91%
- residual activity (RPS6KA1 KD1 KD2 (human); compound 1.0 µM): 80%
- residual activity (RPS6KA1 KD1 KD2 (human); compound 10.0 µM): 92%
- residual activity (MAPK14 (human); compound 1.0 µM): 97%
- residual activity (MAPK14 (human); compound 10.0 µM): 102%
- residual activity (PAK4 (human); compound 1.0 µM): 95%
- residual activity (PAK4 (human); compound 10.0 µM): 97%
- residual activity (MAPK8 (human); compound 1.0 µM): 85%
- residual activity (MAPK8 (human); compound 10.0 µM): 79%
- residual activity (RPS6KA3 KD1 KD2 (human); compound 1.0 µM): 91%
- residual activity (RPS6KA3 KD1 KD2 (human); compound 10.0 µM): 92%
- residual activity (MKNK2 (human); compound 1.0 µM): 106%
- residual activity (MKNK2 (human); compound 10.0 µM): 102%
- residual activity (MAPKAPK5 (human); compound 1.0 µM): 88%
- residual activity (MAPKAPK5 (human); compound 10.0 µM): 87%
- residual activity (MAPK11 (human); compound 1.0 µM): 91%
- residual activity (MAPK11 (human); compound 10.0 µM): 88%
- residual activity (PLK1 (human); compound 1.0 µM): 81%
- residual activity (PLK1 (human); compound 10.0 µM): 88%
- residual activity (IKBKB (human); compound 1.0 µM): 95%
- residual activity (IKBKB (human); compound 10.0 µM): 96%
- residual activity (IRAK4 (human); compound 1.0 µM): 109%
- residual activity (IRAK4 (human); compound 10.0 µM): 99%
- residual activity (IKBKE (human); compound 1.0 µM): 90%
- residual activity (IKBKE (human); compound 10.0 µM): 86%
- residual activity (PIM1 (human); compound 1.0 µM): 87%
- residual activity (PIM1 (human); compound 10.0 µM): 94%
- residual activity (EPHB3 (human); compound 1.0 µM): 112%
- residual activity (EPHB3 (human); compound 10.0 µM): 104%
- residual activity (MAPKAPK3 (human); compound 1.0 µM): 119%
- residual activity (MAPKAPK3 (human); compound 10.0 µM): 114%
- residual activity (MAP3K11 (human); compound 1.0 µM): 109%
- residual activity (MAP3K11 (human); compound 10.0 µM): 109%

Structure (SMILES): Cn1nc(Nc2ccc(F)cc2)c2c(N)ncnc21
- residual activity (STK3 (human); compound 1.0 µM): 102%
- residual activity (STK3 (human); compound 10.0 µM): 104%
- residual activity ([1]; compound 1.0 µM): 114%
- residual activity ([1]; compound 10.0 µM): 114%
- residual activity ([2]; compound 1.0 µM): 97%
- residual activity ([2]; compound 10.0 µM): 98%
- residual activity (ROCK2 (rat); compound 1.0 µM): 117%
- residual activity (ROCK2 (rat); compound 10.0 µM): 113%
- residual activity (DYRK3 (human); compound 1.0 µM): 119%
- residual activity (DYRK3 (human); compound 10.0 µM): 101%
- residual activity (BRSK2 (human); compound 1.0 µM): 99%
- residual activity (BRSK2 (human); compound 10.0 µM): 92%
- residual activity (PIM2 (human); compound 1.0 µM): 100%
- residual activity (PIM2 (human); compound 10.0 µM): 109%
- residual activity (CSNK2A1 (human); compound 1.0 µM): 91%
- residual activity (CSNK2A1 (human); compound 10.0 µM): 96%
- residual activity (MAPK3 (human); compound 1.0 µM): 124%
- residual activity (MAPK3 (human); compound 10.0 µM): 111%
- residual activity (PIM3 (human); compound 1.0 µM): 101%
- residual activity (PIM3 (human); compound 10.0 µM): 95%
- residual activity (MAPK12 (human); compound 1.0 µM): 113%
- residual activity (MAPK12 (human); compound 10.0 µM): 112%
- residual activity (DYRK1A (human); compound 1.0 µM): 105%
- residual activity (DYRK1A (human); compound 10.0 µM): 101%
- residual activity ([3]; compound 1.0 µM): 124%
- residual activity ([3]; compound 10.0 µM): 106%
- residual activity (RPS6KA1 KD1 KD2 (human); compound 1.0 µM): 121%
- residual activity (RPS6KA1 KD1 KD2 (human); compound 10.0 µM): 102%
- residual activity (MAPK14 (human); compound 1.0 µM): 93%
- residual activity (MAPK14 (human); compound 10.0 µM): 80%
- residual activity (PAK4 (human); compound 1.0 µM): 86%
- residual activity (PAK4 (human); compound 10.0 µM): 97%
- residual activity (MAPK8 (human); compound 1.0 µM): 112%
- residual activity (MAPK8 (human); compound 10.0 µM): 102%
- residual activity (RPS6KA3 KD1 KD2 (human); compound 1.0 µM): 110%
- residual activity (RPS6KA3 KD1 KD2 (human); compound 10.0 µM): 107%
- residual activity (MKNK2 (human); compound 1.0 µM): 104%
- residual activity (MKNK2 (human); compound 10.0 µM): 103%
- residual activity (MAPKAPK5 (human); compound 1.0 µM): 107%
- residual activity (MAPKAPK5 (human); compound 10.0 µM): 109%
- residual activity (MAPK11 (human); compound 1.0 µM): 132%
- residual activity (MAPK11 (human); compound 10.0 µM): 127%
- residual activity (PLK1 (human); compound 1.0 µM): 92%
- residual activity (PLK1 (human); compound 10.0 µM): 94%
- residual activity (IKBKB (human); compound 1.0 µM): 98%
- residual activity (IKBKB (human); compound 10.0 µM): 96%
- residual activity (PIM1 (human); compound 1.0 µM): 111%
- residual activity (PIM1 (human); compound 10.0 µM): 115%
- residual activity (MAPKAPK3 (human); compound 1.0 µM): 137%
- residual activity (MAPKAPK3 (human); compound 10.0 µM): 132%
